What was measured:
Settings in all cases: 72 h
Caco-2 [1] = assay: drug sensitivity score (DSS) for viability; higher = more toxic; extreme values may be limits of the assay
U2OS [2] = assay: as above
Vero E6 [3] = assay: as above
HepG2 [4] = assay: as above
Calu-3 [5] = assay: as above
Caco-2 [6] = assay: relative viability EC50 (midpoint between 100% and the lowest measured viability); higher = less toxic
U2OS [7] = assay: as above
Vero E6 [8] = assay: as above
HepG2 [9] = assay: as above
Calu-3 [10] = assay: as above
Caco-2 [11] = assay: cell viability relative to DMSO; higher = less toxic
U2OS [12] = assay: as above
Vero E6 [13] = assay: as above
HepG2 [14] = assay: as above
Calu-3 [15] = assay: as above

| SMILES | drug sensitivity score (Caco-2 [1]) | drug sensitivity score (U2OS [2]) | drug sensitivity score (Vero E6 [3]) | drug sensitivity score (HepG2 [4]) | drug sensitivity score (Calu-3 [5]) | relative viability EC50 (Caco-2 [6]) [µM] | relative viability EC50 (U2OS [7]) [µM] | relative viability EC50 (Vero E6 [8]) [µM] | relative viability EC50 (HepG2 [9]) [µM] | relative viability EC50 (Calu-3 [10]) [µM] | cell viability (Caco-2 [11]; 1 nM) [%] | cell viability (Caco-2 [11]; 10 nM) [%] | cell viability (Caco-2 [11]; 100 nM) [%] | cell viability (Caco-2 [11]; 1000 nM) [%] | cell viability (Caco-2 [11]; 10000 nM) [%] | cell viability (U2OS [12]; 1 nM) [%] | cell viability (U2OS [12]; 10 nM) [%] | cell viability (U2OS [12]; 100 nM) [%] | cell viability (U2OS [12]; 1000 nM) [%] | cell viability (U2OS [12]; 10000 nM) [%] | cell viability (Vero E6 [13]; 1 nM) [%] | cell viability (Vero E6 [13]; 10 nM) [%] | cell viability (Vero E6 [13]; 100 nM) [%] | cell viability (Vero E6 [13]; 1000 nM) [%] | cell viability (Vero E6 [13]; 10000 nM) [%] | cell viability (HepG2 [14]; 1 nM) [%] | cell viability (HepG2 [14]; 10 nM) [%] | cell viability (HepG2 [14]; 100 nM) [%] | cell viability (HepG2 [14]; 1000 nM) [%] | cell viability (HepG2 [14]; 10000 nM) [%] | cell viability (Calu-3 [15]; 1 nM) [%] | cell viability (Calu-3 [15]; 10 nM) [%] | cell viability (Calu-3 [15]; 100 nM) [%] | cell viability (Calu-3 [15]; 1000 nM) [%] | cell viability (Calu-3 [15]; 10000 nM) [%] |
| --- | --- | --- | --- | --- | --- | --- | --- | --- | --- | --- | --- | --- | --- | --- | --- | --- | --- | --- | --- | --- | --- | --- | --- | --- | --- | --- | --- | --- | --- | --- | --- | --- | --- | --- | --- |
| CC(=O)NS(=O)(=O)c1ccc(NC(=O)c2ccccc2C(=O)O)cc1 [phthalylsulfacetamide] | 0 | 0 | 0 | 0 | 0 | > 10 | > 10 | > 10 | > 10 | > 10 | 91.3 | 98.4 | 94.2 | 96.4 | 94.3 | 98.8 | 94.6 | 103 | 99.2 | 102 | 102 | 109 | 98.2 | 104 | 102 | 102 | 104 | 91.6 | 105 | 101 | 100 | 102 | 96.8 | 108 | 101 |
| COc1ccc(C(=O)NCc2cccnc2)cc1C(=O)NCc1cccnc1 [picotamide] | 0 | 0 | 0 | 0 | 0 | > 10 | > 10 | > 10 | > 10 | > 10 | 101 | 87.9 | 87 | 120 | 98.6 | 97.9 | 95 | 92.8 | 101 | 105 | 99.7 | 101 | 109 | 98.7 | 103 | 102 | 99.5 | 120 | 119 | 97 | 97.3 | 97.8 | 103 | 102 | 111 |
| COc1cccc2c1C(=O)c1c(O)c3c(c(O)c1C2=O)C[C@@](O)(C(=O)CO)C[C@@H]3O[C@H]1C[C@H](N)[C@H](O[C@@H]2CCCCO2)[C@H](C)O1 [pirarubicin] | 7.9 | 8 | 6.3 | 13.5 | 9.6 | 1.25 | 1.95 | 1.12 | 0.619 | 0.622 | 96.9 | 92.4 | 89.7 | 68.4 | 20.7 | 98.9 | 99.5 | 99.4 | 84.6 | 1.1 | 102 | 98.1 | 96.7 | 73.5 | 40.6 | 104 | 101 | 87.4 | 38.3 | 0.8 | 103 | 92.7 | 86.7 | 59.1 | 27.4 |
| O=C(O)c1cc(O)c2c3nc4ccccc4oc-3cc(=O)c2n1 [pirenoxine] | 1.9 | 0 | 0 | 0 | 0 | > 10 | > 10 | > 10 | > 10 | > 10 | 99.6 | 103 | 108 | 83.6 | 81.7 | 106 | 99.7 | 102 | 103 | 103 | 105 | 107 | 96.6 | 101 | 95 | 103 | 113 | 89.5 | 99.6 | 92.6 | 108 | 109 | 102 | 106 | 99.4 |
| CN1C(C(=O)Nc2ccccn2)=C(O)c2ccccc2S1(=O)=O [piroxicam] | 0 | 0 | 0 | 0 | 0 | > 10 | > 10 | > 10 | > 10 | > 10 | 93.6 | 96 | 104 | 100 | 100 | 98.5 | 94.9 | 99.3 | 95.9 | 101 | 93.1 | 101 | 94.4 | 93.5 | 114 | 92 | 107 | 92.5 | 105 | 115 | 99.8 | 95.5 | 101 | 96.8 | 105 |
| CC(C)NC(=N)NC(=N)Nc1ccc(Cl)cc1 [proguanil] | 0 | 0 | 0 | 0 | 0 | > 10 | > 10 | > 10 | > 10 | > 10 | 101 | 93.5 | 108 | 105 | 106 | 98 | 93.3 | 98.6 | 97.1 | 98.3 | 97 | 91.9 | 87.3 | 100 | 94.7 | 94.8 | 100 | 91.8 | 106 | 101 | 101 | 90.2 | 96 | 93.7 | 95.4 |
| CC(C)[N+](C)(CCOC(=O)C1c2ccccc2Oc2ccccc21)C(C)C [propantheline] | 0 | 0 | 0 | 0 | 0 | > 10 | > 10 | > 10 | > 10 | > 10 | 86.1 | 95.3 | 105 | 91.7 | 105 | 96.9 | 95.6 | 102 | 96.9 | 102 | 108 | 108 | 98.8 | 104 | 101 | 107 | 99 | 103 | 110 | 93.6 | 93.8 | 101 | 108 | 108 | 109 |
| Cc1ncc(CO)c(CO)c1O [pyridoxine] | 0 | 0 | 0 | 0 | 0 | > 10 | > 10 | > 10 | > 10 | > 10 | 96.4 | 80.3 | 94.3 | 105 | 88 | 96.7 | 94.2 | 98.1 | 94.6 | 96.8 | 102 | 105 | 97.8 | 108 | 106 | 98.5 | 105 | 91 | 96.2 | 107 | 92.2 | 97.2 | 97.1 | 98.5 | 98.6 |
| COCCCOc1ccnc(C[S+]([O-])c2nc3ccccc3[nH]2)c1C (stereo not given) [rabeprazole] | 0 | 0 | 0 | 0 | 0 | > 10 | > 10 | > 10 | > 10 | > 10 | 99.4 | 102 | 97.3 | 94.8 | 95.6 | 102 | 97.4 | 100 | 99.9 | 100 | 98 | 108 | 94.3 | 105 | 100 | 97.6 | 106 | 91.9 | 94.6 | 95.8 | 98 | 92.7 | 98.6 | 103 | 100 |
| O=C(NC(Cc1cc(=O)[nH]c2ccccc12)C(=O)O)c1ccc(Cl)cc1 (stereo not given) [rebamipide] | 0 | 0 | 0 | 0 | 0 | > 10 | > 10 | > 10 | > 10 | > 10 | 92.6 | 97.7 | 89.9 | 100 | 99.3 | 90.5 | 96.7 | 93.9 | 103 | 110 | 101 | 96 | 97.6 | 96.8 | 110 | 107 | 89.4 | 108 | 105 | 104 | 99.2 | 97.5 | 92.7 | 99.7 | 106 |
| Oc1ccc(/C=C/c2cc(O)cc(O)c2)cc1 [resveratrol] | 0 | 0 | 0 | 0 | 0.1 | > 10 | > 10 | > 10 | > 10 | > 10 | 93.3 | 91.6 | 95.8 | 99.3 | 90.1 | 97.7 | 95 | 96.9 | 106 | 106 | 97.5 | 97.3 | 94.9 | 100 | 98.6 | 107 | 116 | 108 | 97.9 | 104 | 106 | 103 | 94.8 | 93.7 | 87.2 |
| OC[C@@H](O)[C@@H](O)[C@@H](O)CO [ribitol] | 0 | 0 | 0 | 0 | 0 | > 10 | > 10 | > 10 | > 10 | > 10 | 100 | 97 | 104 | 102 | 103 | 98.9 | 96.2 | 97.4 | 93 | 102 | 93.7 | 100 | 97.8 | 99.2 | 101 | 101 | 90.9 | 111 | 100 | 105 | 102 | 93 | 98.1 | 96.6 | 98 |
| CO[C@H]1/C=C/O[C@@]2(C)Oc3c(C)c(O)c4c(O)c(c(/C=N/N5CCN(C6CCCC6)CC5)c(O)c4c3C2=O)NC(=O)/C(C)=C\C=C\[C@H](C)[C@H](O)[C@@H](C)[C@@H](O)[C@@H](C)[C@H](OC(C)=O)[C@@H]1C [rifapentine] | 0.7 | 0.2 | 0 | 0 | 0 | > 10 | > 10 | > 10 | > 10 | > 10 | 95.2 | 94.9 | 94.4 | 102 | 77.6 | 96.3 | 103 | 95.3 | 100 | 85.7 | 96.2 | 93.7 | 97 | 89.1 | 97.7 | 96.4 | 92.9 | 94 | 97.7 | 89.3 | 101 | 104 | 94.4 | 111 | 88.2 |
| N[C@@H]1c2cccnc2[C@H](OC(=O)N2CCC(n3c(=O)[nH]c4ncccc43)CC2)CC[C@H]1c1cccc(F)c1F [rimegepant] | 0 | 0 | 0 | 0 | 0 | > 10 | > 10 | > 10 | > 10 | > 10 | 99.3 | 94.5 | 98.1 | 91.2 | 102 | 102 | 96.1 | 101 | 97.2 | 100 | 97 | 96.8 | 91.6 | 99.7 | 112 | 92.4 | 98.6 | 98.8 | 106 | 104 | 90.7 | 95.3 | 98.4 | 92.9 | 97.6 |

From the supplement of paper PMC13380429
